The results in this text go back to ChEMBL document CHEMBL1201862, “PubChem BioAssay data set” (2004).

Common to all, as to assay: growth of human tumour cells (NCI), 48 h
The subject of assay [1] is CAKI-1.
Assay [2] relates to CCRF-CEM.
In assay [3] the test system is HCT-116.
Assay [4] deals with HL-60.
Assay [5] deals with HOP-62.
For assay [6], the system named is K562.
Assay [7] relates to KM12.
Assay [8] concerns LOX IMVI.
Assay [9] relates to MDA-MB-231.
In assay [10] the test system is NCI-H226.
Assay [11] concerns NCI/ADR-RES.
For assay [12], the system named is OVCAR-8.
For assay [13], the system named is PC-3.
For assay [14], the system named is RXF 393.
The test system of assay [15] is SF-295.
Assay [16] deals with SK-MEL-28.
Assay [17] concerns SN12C.
The subject of assay [18] is SNB-19.
The subject of assay [19] is SR.
Assay [20] deals with SW-620.

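Values below derive from 48-hour exposures of cells grown in 96-well plates, with endpoints linearly interpolated between the two concentrations bracketing the appropriate inhibition level. GI50 is the concentration that inhibits growth by half.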 Calls of active or inactive are those of the source. Cut-off read from the data, not from the text of the source: active = GI50 up to about 1.1 µM and inactive = higher.

Take `COC(=O)CNC(=O)CCSc1nnc(COc2ccc(Cl)cc2)n1-c1ccccc1`: the GI50 in [1] is 12 µM (inactive); in assay [2] it was 55.5 µM (inactive); in [3], 37.5 µM (inactive); in [4] it was 30 µM (inactive); in assay [5] it was > 100 µM (inactive); in [6] it was 30.3 µM (inactive). The GI50 in assay [7] was 34 µM (inactive); in assay [8] it was 29.1 µM (inactive); in assay [9] it was 21 µM (inactive); in [10], 16 µM (inactive); in assay [11], 42.6 µM (inactive); in assay [12], 34.9 µM (inactive). Moreover, the GI50 in [13] was 52 µM (inactive); in assay [14] it was 25.8 µM (inactive); in assay [15] it was 58.5 µM (inactive); in assay [16] it was 23.7 µM (inactive); in assay [17] it was 20.3 µM (inactive); in assay [18], > 100 µM (inactive). Also, the GI50 was > 10 µM (inactive) in [19] and 39.5 µM (inactive) in assay [20].
Regarding `N#Cc1c(-c2ccc(Cl)cc2)c2c([nH]c1=O)-c1cc([N+](=O)[O-])ccc1CCC2`, the GI50 in [1] was 19.9 µM (inactive); in assay [2] it was 25.2 µM (inactive); in [3] it was 14.3 µM (inactive); in assay [4], 20 µM (inactive); in assay [5], 20.3 µM (inactive); in assay [6], 35.4 µM (inactive). The GI50 in assay [7] is 16.4 µM (inactive); in [8] it was 17.5 µM (inactive); in assay [9], 22.4 µM (inactive); in assay [10] it was 17.1 µM (inactive); in [11], 20.8 µM (inactive); in [12], 20.5 µM (inactive). Moreover, the GI50 is 29.4 µM (inactive) in assay [13]; 16.1 µM (inactive) in assay [14]; 11.3 µM (inactive) in assay [15]; 21.2 µM (inactive) in [16]; 17.2 µM (inactive) in assay [17]; 20.5 µM (inactive) in assay [18]. In addition, the GI50 in [19] is 28.4 µM (inactive); in assay [20], 33.2 µM (inactive).
As for `O=[N+]([O-])c1ccccc1S(=O)(=O)c1cc(Cl)cc2c1NCCC2`, the GI50 was 60.4 µM (inactive) in assay [1]; 36.1 µM (inactive) in assay [2]; 41.7 µM (inactive) in assay [3]; 31.3 µM (inactive) in assay [4]; > 100 µM (inactive) in assay [5]; 37.5 µM (inactive) in assay [6]. In addition, the GI50 in [7] is 85.9 µM (inactive); in assay [8], 43.9 µM (inactive); in assay [9] it was 34.1 µM (inactive); in assay [10], 45.5 µM (inactive); in assay [11], > 100 µM (inactive); in assay [12], > 100 µM (inactive). The GI50 was 52.1 µM (inactive) in assay [13]; 63 µM (inactive) in assay [14]; 52.2 µM (inactive) in assay [15]; 62.8 µM (inactive) in [16]; 90.6 µM (inactive) in assay [17]; 65 µM (inactive) in assay [18]. In addition, the GI50 in assay [19] was 42.8 µM (inactive); in assay [20] it was > 100 µM (inactive).
On to `COc1ccc(COCC[C@H](C)OC2OC(CO[Si](C)(C)C(C)(C)C)C(O)C(O)C2O)cc1` (some centres undefined), for which the GI50 in assay [1], in assay [2], in assay [3], in [4], in [5] and in assay [6] was > 100 µM (inactive) each time. Also, the GI50 in assay [7], in assay [8], in assay [9], in assay [10], in assay [11] and in assay [12] was > 100 µM (inactive) in each case. The GI50 in assay [13] was 72.9 µM (inactive); in [14], > 100 µM (inactive); in assay [15], > 100 µM (inactive); in assay [16], > 100 µM (inactive); in assay [17], > 100 µM (inactive); in assay [18], > 100 µM (inactive). In addition, the GI50 in [19] and in assay [20] was > 100 µM (inactive) each time.
For the compound `COC(=O)c1sc2c(c1C(=O)OC)/C(=N/c1ccc(OC)cc1)S/C2=N\c1ccc(OC)cc1`, the GI50 in assay [1] was 2.05 µM (inactive); in assay [2] it was 0.104 µM (active); in assay [3], 0.451 µM (active); in assay [4], 0.245 µM (active); in assay [5], 0.789 µM (active); in [6], 0.389 µM (active). Further, the GI50 in assay [7] was 1.22 µM (inactive); in assay [8], 0.258 µM (active); in assay [9], 0.853 µM (active); in [10], 1.74 µM (inactive); in assay [11], 1.71 µM (inactive); in [12] it was 0.944 µM (active). Also, the GI50 in [13] is 0.462 µM (active); in assay [14] it was 0.47 µM (active); in assay [15], 1.68 µM (inactive); in [16] it was 1.37 µM (inactive); in assay [17] it was 0.644 µM (active); in assay [18], 1.52 µM (inactive). Further, the GI50 in assay [19] was 0.485 µM (active); in assay [20] it was 0.224 µM (active).
As for `COC(=O)c1cc2ccc(OC(C)=O)c(OC(C)=O)c2cn1`, the GI50 was 20.8 µM (inactive) in [1]; 2.29 µM (inactive) in assay [2]; 17.3 µM (inactive) in [3]; 2.72 µM (inactive) in assay [4]; 25.5 µM (inactive) in assay [5]; 2.72 µM (inactive) in assay [6]. Besides, the GI50 was 18.7 µM (inactive) in assay [7]; 1.42 µM (inactive) in [8]; 4.01 µM (inactive) in [9]; 22.9 µM (inactive) in [10]; 6.5 µM (inactive) in assay [11]; 7.64 µM (inactive) in assay [12]. The GI50 in assay [13] was 20.7 µM (inactive); in assay [14], 17.4 µM (inactive); in assay [15], 4.95 µM (inactive); in [16], 19 µM (inactive); in [17] it was 3.11 µM (inactive); in assay [18], > 10 µM (inactive). Besides, the GI50 was 2.65 µM (inactive) in assay [19] and 3.64 µM (inactive) in [20].
Consider `CC(C)C(N)(C(=O)O)c1ccccc1` (centres undefined), for which the GI50 in [1], in assay [2], in [3], in assay [4], in [5] and in [6] was > 100 µM (inactive) in each case. Besides, the GI50 in [7], in assay [8], in assay [9], in assay [10], in assay [11] and in [12] was > 100 µM (inactive) each time. The GI50 in assay [13], in assay [14], in assay [15], in assay [16], in [17] and in assay [18] was > 100 µM (inactive) in each case. Besides, the GI50 in assay [19] and in assay [20] was > 100 µM (inactive) throughout.
As for `CCc1ncnc2cc(OCC3CO3)c(OC)cc12` (centres undefined), the GI50 in [1] was 5.06 µM (inactive); in assay [2], 0.436 µM (active); in assay [3], 0.577 µM (active); in assay [4] it was 0.889 µM (active); in [5], 3.18 µM (inactive); in assay [6], 1.1 µM (active). The GI50 is 5.58 µM (inactive) in [7]; 0.646 µM (active) in [8]; 7.24 µM (inactive) in assay [9]; 6.49 µM (inactive) in [10]; 7.23 µM (inactive) in assay [11]; 0.647 µM (active) in assay [12]. The GI50 in [13] was 7.31 µM (inactive); in [14], 2.28 µM (inactive); in assay [15], 3.15 µM (inactive); in assay [16], 11.7 µM (inactive); in assay [17], 1.3 µM (inactive); in assay [18] it was 6.52 µM (inactive). The GI50 in [19] is 0.209 µM (active); in assay [20], 0.735 µM (active).
With `CCOC(=O)c1nc2ccc(C(F)(F)F)cc2nc1Oc1ccc(C#N)cc1`, the GI50 is 20.3 µM (inactive) in assay [1]; > 100 µM (inactive) in [2]; 48.5 µM (inactive) in assay [3]; > 100 µM (inactive) in [4]; 15.5 µM (inactive) in assay [5]; > 100 µM (inactive) in assay [6]. For the same compound, the GI50 was 23.6 µM (inactive) in [7]; 39.6 µM (inactive) in [8]; 12.9 µM (inactive) in assay [9]; 11.3 µM (inactive) in assay [10]; 18.2 µM (inactive) in assay [11]; 19.6 µM (inactive) in [12]. Moreover, the GI50 was 17.3 µM (inactive) in assay [13]; 20 µM (inactive) in [14]; 14.8 µM (inactive) in [15]; 43.1 µM (inactive) in [16]; 17.7 µM (inactive) in [18]; 81.5 µM (inactive) in assay [19]. Further, in [20], the GI50 was 40.3 µM (inactive).
With `COc1cccc(C(=O)Oc2ccc(OS(=O)(=O)c3ccc(C)cc3)cc2)c1C#N`, the GI50 in assay [1] was > 100 µM (inactive); in assay [2] it was 47.5 µM (inactive); in assay [3] it was 41.7 µM (inactive); in assay [4] it was 34.1 µM (inactive); in assay [5] it was > 100 µM (inactive); in [6] it was 43 µM (inactive). Besides, the GI50 in assay [7] was 61.1 µM (inactive); in [8], > 100 µM (inactive); in assay [9], 65.6 µM (inactive); in assay [10] it was > 100 µM (inactive); in assay [11] it was 33 µM (inactive); in assay [12], 66.8 µM (inactive). Further, the GI50 was 43.3 µM (inactive) in assay [13]; 37.6 µM (inactive) in assay [14]; 55.6 µM (inactive) in assay [15]; > 100 µM (inactive) in assay [16]; > 100 µM (inactive) in assay [17]; > 100 µM (inactive) in [18]. The GI50 is 47.9 µM (inactive) in assay [19] and > 100 µM (inactive) in [20].
